US7981882B2, “6-N-linked heterocycle-substituted 2,3,4,5-tetrahydro-1H-benzo[d]azepines as 5-HT2C receptor agonists” (Eli Lilly and Company, priority 2005, dated 2011)

How the values were obtained:
Wistar rats [1] = details: cited from earlier work
male NIH Swiss mice [2] = test: Marble burying assay; type: in vivo, mouse; details: 30 min test, rotorod before
Source text: Marble burying in mice has been used to model anxiety disorders including obsessive-compulsive disorders (OCD) due to ethological study of the behavior (e.g. Gyertyan I. “Analysis of the marble burying response: Marbles serve to measure digging rather than evoke burying”, Behavioural Pharmacology 6: 24-31, (1995)) and due to the pharmacological effects of clinical standards (c.f., Njung'E K. Handley S L. “Evaluation of marble-burying behavior as a model of anxiety”, Pharmacology, Biochemistry & Behavior. 38: 63-67, (1991)); Borsini F., Podhoma J., and Marazziti, D. “Do animal models of anxiety predict anxiolytic effects of antidepressants?”, Psychopharmacology 163: 121-141, (2002)).
House experimentally-naïve male, NIH Swiss mice (Harlan Sprague-Dawley, Indianapolis, Ind.) weighing between 28-35 g in groups of 12 for at least three days prior to testing in a vivarium with 12 h light and dark cycles. Conduct experiments during the light cycle in a dimly lit experimental testing room. Dose mice with vehicle or test compound and, after a specified pretreatment interval (generally 30 min.), place each mouse individually on a rotorod (Ugo Basile 7650) operating at a speed of 6 revolutions/min. and observe for falling. […]
Clinically effective standard compounds suppress marble burying at doses that are devoid of motor-impairing effects as measured on the rotorod. […]

male NIH Swiss mice [3] = test: Nestlet shredding; type: in vivo, mouse; details: 30 min test
Source text: Mice naturally will construct nests of material available in their living environment. Since this behavior is obsessive in nature, it has been used to model OCD (Xia Li, Denise Morrow and Jeffrey M. Witkin, “Decreases in nestlet shredding of mice by serotonin uptake inhibitors: comparison with marble burying”, Psychopharmacology, submitted Jul. 14, 2003). House experimentally-naïve male, NIH Swiss mice (Harlan Sprague-Dawley, Indianapolis, Ind.) weighing between 28-35 g in groups of 12 for at least three days prior to testing in a vivarium with a 12 h light/dark cycle. Conduct experiments during the light cycle in an experimental room with normal overhead fluorescent lighting. Dose mice with vehicle or test compound and after a specified pretreatment interval (generally 30 min.), place the mice individually in a 17×28×12 cm high plastic tub with about 5 mm sawdust shavings on the floor along with a pre-weighed multi-ply gauze pad (51 mm square). After 30 min., weigh the remainder of the gauze pad not removed by the mouse. Determine the weight of the gauze used for nestlet construction by subtraction. Compare the results for test compound treated mice to the results for vehicle control treated mice with Dunnett's test.
Clinically effective OCD treatment standard compounds suppress nestlet shredding at doses that are devoid of motor-impairing effects as measured by the rotorod test. […]

Wistar rats [4] = test: Schedule-induced polydipsia; type: in vivo, rat
Source text: Schedule-Induced Polydipsia
Food-deprived rats exposed to intermittent presentations of food will drink amounts of water that are far in excess of their normal daily intake and in excess of their intake when given all of their food at one time (Falk J L. “Production of polydipsia in normal rats by an intermittent food schedule”, Science 133: 195-196, (1961)). This excessive behavior is persistent and has been used to model OCD.
Maintain Wistar rats on a food restricted diet (to maintain 85% free feeding weight), but with free access to water. Train the rats in a behavioral testing chamber to press a lever to receive a food pellet under a fixed interval schedule, such that the rats are rewarded with a 45 mg food pellet the first time they press a lever after a 120 second interval has elapsed. The fixed interval is then reset to 120 seconds and the process repeated. Thus, during a 90 min. test session, the rats can earn a maximum of 45 pellets. The behavioral chamber is also equipped with a water bottle that is weighed before and after the session to determine the amount of water consumed.
Administer test compounds on Tuesdays and Fridays. […] Compare the rates of lever pressing and water consumption for each animal's performance during sessions after test compound treatment with that animal's performance during control sessions, expressed as a percent of the control rate. […]

male NIH Swiss mice [5] = details: cited from earlier work

CN(C)CCCN1c2ccccc2CCc2ccc(Cl)cc21 [chlomipramine]
Schedule-induced polydipsia (clinically effective OCD treatment standards) (Wistar rats [1]): suppress schedule-induced polydipsia without producing notable changes in motor patterns, food intake, or behavior the following day

CN(C)CCCN1c2ccccc2Sc2ccc(Cl)cc21 [chlorpromazine]
Marble burying behavior (with rotorod performance) (male NIH Swiss mice [2]): decrease marble burying only at doses that also disrupt rotorod performance

C[C@H](N)Cc1ccccc1 [d-amphetamine]
Nestlet shredding (with motor effects) (male NIH Swiss mice [3]): decreases nestlet shredding only at doses that produce motoric side effects
Suppression of excessive drinking with co-administration of 5-HT2C antagonist (Wistar rats [4]): not prevented by the 5HT2C receptor antagonist
Schedule-induced polydipsia (excessive drinking) (Wistar rats [4]; 90 min session): decreases excessive drinking only at behaviorally stimulating doses

CNCCC(Oc1ccc(C(F)(F)F)cc1)c1ccccc1 (stereo not shown) [fluoxetine]
Marble burying (clinical standards, literature) (male NIH Swiss mice [5]): decrease burying
Schedule-induced polydipsia (clinically effective OCD treatment standards) (Wistar rats [1]): suppress schedule-induced polydipsia without producing notable changes in motor patterns, food intake, or behavior the following day
